The results in this text go back to article PMC7822874, “Chemoprotective antimalarials identified through quantitative high-throughput screening of Plasmodium blood and liver stage parasites” (Scientific Reports, 2021).

The test system of this assay is Plasmodium falciparum Dd2 asexual blood stage parasites. The experiment in a line: microbe, parasite or virus in culture. Also noted: species or system Plasmodium falciparum Dd2 in human erythrocytes; single determination (one 11-point concentration-response curve). As to conditions: Plasmodium falciparum, DD2, Erythrocyte, 72 h; read-out: AC50.
With `Cc1ccc(-c2nc3n(n2)C(c2ccccc2Cl)C=C(c2ccc(Cl)cc2)N3)cc1` (centres unmarked) [NCGC00105122-01], the concentration at half-maximal activity (AC50) is 9.44 µM.

Take `Cc1ncsc1CN1CCCN(Cc2ccncc2)C(c2ccccc2)CC(=O)NCC1` (centres unmarked) [NCGC00467186-01]: the half-maximal activity concentration (AC50) was 8.41 µM. For the molecule `COc1ccc2cc1Nc1ccc(cc1)C[C@H](NC(=O)c1cccnc1)C(=O)N(C)[C@@H](C(=O)NCCOc1ccccc1)C2` [NCGC00410281-01], the AC50 amounted to 4.22 µM. On to `COc1cccc(C2=C(C(C)=O)Sc3nnc(C4CCCCC4)n3N2C(C)=O)c1` [NCGC00137294-01], for which the AC50 turned out to be 4.73 µM. Regarding `CCC(CC)c1cc([C@H]2CN3CC[C@H]2C[C@@H]3CNC(=O)NCc2ccccc2)nc(-c2ccncc2)n1` [NCGC00400244-01], the AC50 stood at 4.22 µM. For `COc1ccc(CN2CC(Oc3ccccc3C(=O)NCc3ccccc3)C2)c(OC)c1` [NCGC00458086-01], the concentration at half-maximal activity (AC50) amounted to 10.6 µM. For `Oc1ccc(Br)cc1CN1CCN(c2ccccc2)CC1` [MLS000106609-01], the AC50 was 2.11 µM. For the molecule `CCOC(=O)c1c(CN2CCN(CCO)CC2)n(-c2ccccc2)c2cc(Br)c(O)cc12` [MLS000778151-01], the AC50 was 5.96 µM. As for `Cc1c(O)c(CN(C)C)cc2c1oc(=O)c1ccccc12` [MLS000778334-01], the AC50 was 4.22 µM. For `O=C(Nc1ccc(C(=O)OC[C@@H]2CCCN3CCCC[C@H]23)cc1)c1cccc(Br)c1` [MLS000700112-01], the concentration at half-maximal activity (AC50) turned out to be 6.68 µM.

Regarding `O=C(N/N=C/c1ccc(OCc2ccccc2)cc1)c1ccco1` [MLS000769970-01], the AC50 was found to be 13.3 µM.

As to `CN(Cc1ccc(-n2cccn2)cc1)CC1CCN(CCc2ccc(F)cc2)CC1` [NCGC00425928-01], the half-maximal activity concentration (AC50) is 10.6 µM. The result for `COCCN1C(=O)c2ccccc2C(C(=O)Nc2nc3ccccc3[nH]2)C12CCCCC2` (centres unmarked) [NCGC00423176-01] reads 4.73 µM; that for `Cc1nc(CN2C(=O)OC3(CCN(C(=O)c4ccc(Oc5ccccc5)cc4)CC3)C2(C)c2ccccc2)cs1` (centres unmarked) [NCGC00415614-01], 13.3 µM; that for `COc1cc(O)c(C(CCN2CCOCC2)c2ccc3c(c2)OCO3)c(OC)c1` (centres unmarked) [MLS000879477-01], 4.22 µM. For `O=[N+]([O-])c1ccc(N2CCN(/C(S)=N/C3CCCCC3)CC2)cc1` [MLS000574247-01], the concentration at half-maximal activity (AC50) was determined as 1.88 µM. For `Cc1onc(-c2ccc(Cl)cc2)c1-c1ccnn1S(=O)(=O)c1cccc(C(F)(F)F)c1` [MLS001111123-01], the half-maximal activity concentration (AC50) amounted to 4.73 µM.

On to `CC1(c2ccccc2)N(Cc2ccccc2)C(=O)OC12CCN(Cc1cccc(O)c1)CC2` (centres unmarked) [NCGC00415604-01], for which the AC50 is 8.41 µM. As for `CCOC(=O)c1sc(NC(=O)C2c3ccccc3Oc3ccccc32)c(C(=O)OCC)c1C` [NCGC00100913-01], the half-maximal activity concentration (AC50) was 2.66 µM. Regarding `CCOc1ccc(C2C(C(=O)Nc3ccccc3)=C(C)N=c3sc(=Cc4cccc(OCC(=O)O)c4)c(=O)n32)cc1` (centres unmarked) [MLS000705052-01], the concentration at half-maximal activity (AC50) is 5.31 µM. Take `O=C(NCc1cccs1)c1nc(-c2cccc(C(F)(F)F)c2)c2cnccn12` [NCGC00476439-01]: the half-maximal activity concentration (AC50) came to 9.44 µM. `COc1cc2nc(NCc3ccccc3Cl)n3nc(-c4cccnc4)nc3c2cc1OC` [NCGC00112532-01]: the AC50 amounted to 2.11 µM. For `COc1ccc(-c2nnc(C[C@@H]3C[C@@H](C(C)C)[C@H](CN4CCC(O)CC4)C=C3C)o2)cc1` [NCGC00394772-01], the AC50 was determined as 9.44 µM. Consider `CCN1CCN(C(=O)c2c(C)nn(-c3ccc(F)cc3)c2-n2cccc2)CC1` [NCGC00125054-01], for which the AC50 was found to be 9.44 µM.

For `c1ccc2c(c1)CNC1(CCN(Cc3cccc4ccccc34)CC1)CO2` [NCGC00477546-01], the AC50 turned out to be 7.5 µM. Regarding `CCCOC(=O)c1ccc(-c2c(C)noc2-c2ccc(OC)cc2O)o1` [MLS000097856-01], the AC50 was 1.88 µM. As for `CCOC(=O)c1ccccc1NC(=O)C(C)Oc1ccccc1` (centres unmarked) [MLS000109889-01], the half-maximal activity concentration (AC50) was 10.6 µM. Turning to `COc1ccc(OC)c(S(=O)(=O)Nc2ccc(O)c3ccccc23)c1` [MLS001045548-01], the AC50 came to 8.41 µM. For the molecule `COc1ccc(-c2n[nH]c3ncc(-c4cccnc4)nc23)cc1F` [NCGC00419143-01], the AC50 was 3.85 µM.

What is called AC50 is the concentration giving half of the maximal activity seen.
